Measured values published in ChEMBL document CHEMBL3727354, “3-(2-amino-ethyl)-5-(3-cyclohexyl-propylidene)-thiazolidine-2,4-dione and its derivatives as multiple signaling pathway inhibitors and for the treatment of cancer” (2011).
The source made the active and inactive calls. No cut-off for these calls is given here.

How the values were obtained:
Mus musculus [1] = test: Toxicity in B6C3F1 mouse assessed as effect on body weight at 20 mg/kg, po administered for 21 days; assay type: organism-based; conditions: in vivo, 504 h
Mus musculus [2] = test: Toxicity in B6C3F1 mouse assessed as effect on general health at 20 mg/kg, po administered for 21 days; assay type: organism-based; conditions: in vivo, 504 h
B16-F10 [3] = test: Antitumor activity against mouse B16F10 cells implanted in B6C3F1 mouse assessed as increase in mouse survival rate at 50 mg/kg, ip administered on day 11 post tumor implantation measured twice a day during compound dosing; assay type: functional, organism-based
[4] = Cell cycle arrest in human U937 cells assessed as decrease in cell level at S phase after 24 hrs by propidium iodide staining-based flow cytometric analysis; assay type: functional; conditions: U-937
[5] = Cell cycle arrest in human U937 cells assessed as accumulation at G2/M phase after 24 hrs by propidium iodide staining-based flow cytometric analysis; assay type: functional; conditions: U-937
[6] = Cell cycle arrest in human U937 cells assessed as decrease in cell level at G0/G1 phase after 24 hrs by propidium iodide staining-based flow cytometric analysis; assay type: functional; conditions: U-937
DU-145 = test: Induction of apoptosis in human DU145 cells at 5 to 25 uM after 24 hrs by annexin V/propidium iodide staining-based flow cytometric analysis; assay type: functional, cell-based
[7] = Inhibition of Raf/MEK/ERK pathway in human U937 cells assessed as inhibition of ERK1/2 phosphorylation at Thr202/Tyr204 at 3 uM preincubated for 1 hr followed by PMA stimulation measured after 30 mins by Western blot analysis; assay type: cell-based; conditions: U-937
U-937 = test: Induction of apoptosis in human U937 cells after 24 hrs by annexin V/propidium iodide staining-based flow cytometric analysis; assay type: functional, cell-based
Mus musculus [8] = test: Toxicity in B6C3F1 mouse assessed as effect on general health at 30 to 80 mg/kg, po administered for 21 days; assay type: organism-based; conditions: in vivo, 504 h
Mus musculus [9] = test: Toxicity in B6C3F1 mouse assessed as effect on body weight at 30 to 80 mg/kg, po administered for 21 days; assay type: organism-based; conditions: in vivo, 504 h
B16-F10 [10] = test: Antitumor activity against mouse B16F10 cells implanted in B6C3F1 mouse assessed as decrease in lung tumor nodules at 20 mg/kg administered daily via oral gavage started one day before tumor implantation and stopped at day 15 post tumor implantation measured at day 18; assay type: functional, organism-based
[11] = Inhibition of PI3K/Akt pathway in human U937 cells assessed as reduction of Akt phosphorylation preincubated for 1 hr followed by PMA stimulation measured after 30 mins by Western blot analysis; assay type: cell-based; conditions: U-937
[12] = Inhibition of Raf/MEK/ERK pathway in human U937 cells assessed as reduction of MEK phosphorylation preincubated for 1 hr followed by PMA stimulation measured after 30 mins by Western blot analysis; assay type: cell-based; conditions: U-937
M12 = test: Induction of apoptosis in human M12 cells after 24 hrs by annexin V/propidium iodide staining-based flow cytometric analysis; assay type: functional, cell-based
[13] = Inhibition of Raf/MEK/ERK pathway in human U937 cells assessed as reduction of MEK phosphorylation at 0.3 to 30 uM preincubated for 1 hr followed by PMA stimulation measured after 30 mins by Western blot analysis in presence of MEK inhibitor PD184352; assay type: cell-based; conditions: U-937

Row | Compound | Activity (Mus musculus [1]) | Activity (Mus musculus [2]) | Activity (B16-F10 [3]) | Activity [4] | Activity [5] | Activity [6] | Activity (DU-145) | inhibition [7] | Activity (U-937) | Activity (Mus musculus [8]) | Activity (Mus musculus [9]) | Activity (B16-F10 [10]) | inhibition [11] | inhibition [12] | Activity (M12) | inhibition [13]
1 | Cl.NCCN1C(=O)S/C(=C\CCc2ccccc2)C1=O | Non-toxic | Non-toxic | Active | Active | Active | Active |  |  |  |  |  |  |  |  |  | 
2 | Cl.NCCN1C(=O)S/C(=C\CCC2CCCCC2)C1=O |  |  |  | Active | Active | Active | inactive | Active | Dose-dependent effect | Non-toxic | Non-toxic | Active | Dose-dependent effect | Dose-dependent effect | Dose-dependent effect | inactive
